# Measured values: patent US20110105509A1 (Wyeth, LLC, priority 2009, published 2011)
# Target: T1, CRTH2 (Homo sapiens, UniProt Q9Y5Y4)
# T1 construct: expressed in transfected cells; host or cells: CHO cells
# T1 sequence (Q9Y5Y4 1-395): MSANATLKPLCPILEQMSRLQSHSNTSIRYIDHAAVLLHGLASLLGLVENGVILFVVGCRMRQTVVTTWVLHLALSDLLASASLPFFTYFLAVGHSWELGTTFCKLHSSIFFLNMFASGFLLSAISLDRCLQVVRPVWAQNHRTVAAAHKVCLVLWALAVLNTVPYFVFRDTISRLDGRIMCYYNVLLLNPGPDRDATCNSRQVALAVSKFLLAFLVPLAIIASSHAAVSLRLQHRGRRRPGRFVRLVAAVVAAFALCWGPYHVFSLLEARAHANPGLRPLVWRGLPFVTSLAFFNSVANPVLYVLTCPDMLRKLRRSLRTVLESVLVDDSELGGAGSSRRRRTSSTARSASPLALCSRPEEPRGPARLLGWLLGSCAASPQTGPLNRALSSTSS
# Assay: FRET based competitive immunoassay (cAMP) in CRTH2 expressing CHO cells
# Assay type: cell-based
# Conditions: CRTH2 expressing CHO cells incubated with forskolin and PGD2; Eu3+ cryptate-labeled anti-cAMP and d2-labeled cAMP
# Procedure: FRET Assay: To evaluate potency compounds were tested in a FRET based competitive immunoassay in which CRTH2 expressing CHO cells were incubated in the presence of forskolin and PGD2 along with Eu3+ cryptate-labeled anti-cAMP and d2-labeled cAMP.
row,IC50,Compound
1,23 nM,"Cc1c(-c2ccc(=O)n(Cc3c(F)cccc3F)c2)c2ccccc2n1CC(=O)O [Example 285, 2-(3-(1-(2,6-difluorobenzyl)-6-oxo-1,6-dihydropyridin-3-yl)-2-methyl-1H-indol-1-yl)acetic acid]"
2,11 nM,"Cc1c(-c2ccc(=O)n(Cc3cc(F)c(F)cc3F)c2)c2ccccc2n1CC(=O)O [Example 286, 2-(2-methyl-3-(6-oxo-1-(2,4,5-trifluorobenzyl)-1,6-dihydropyridin-3-yl)-1H-indol-1-yl)acetic acid]"
3,305 nM,"Cc1c(-c2ccc(=O)n(CC(C)C)c2)c2ccccc2n1CC(=O)O [Example 287, 2-(3-(1-isobutyl-6-oxo-1,6-dihydropyridin-3-yl)-2-methyl-1H-indol-1-yl)-acetic acid]"
4,117 nM,"Cc1c(-c2ccc(=O)n(C3CCCC3)c2)c2ccccc2n1CC(=O)O [Example 288, 2-(3-(1-cyclopentyl-6-oxo-1,6-dihydropyridin-3-yl)-2-methyl-1H-indol-1-yl)-acetic acid]"
5,6 nM,"Cc1c(-c2ccc(=O)n(Cc3ccc(F)cc3)c2)c2cc(Cl)ccc2n1CC(=O)O [Example 289, 2-(5-chloro-3-(1-(4-fluorobenzyl)-6-oxo-1,6-dihydropyridin-3-yl)-2-methyl-1H-indol-1-yl)acetic acid]"
6,7 nM,"Cc1c(-c2ccc(=O)n(Cc3ccccc3F)c2)c2cc(Cl)ccc2n1CC(=O)O [Example 290, 2-(5-chloro-3-(1-(2-fluorobenzyl)-6-oxo-1,6-dihydropyridin-3-yl)-2-methyl-1H-indol-1-yl)acetic acid]"
7,8 nM,"Cc1c(-c2ccc(=O)n(Cc3c(F)cccc3F)c2)c2cc(Cl)ccc2n1CC(=O)O [Example 291, 2-(5-chloro-3-(1-(2,6-difluorobenzyl)-6-oxo-1,6-dihydropyridin-3-yl)-2-methyl-1H-indol-1-yl)acetic acid]"
8,11 nM,"Cc1c(-c2ccc(=O)n(Cc3cccc(F)c3F)c2)c2cc(Cl)ccc2n1CC(=O)O [Example 292, 2-(5-Chloro-3-(1-(2,3-difluorobenzyl)-6-oxo-1,6-dihydropyridin-3-yl)-2-methyl-1H-indol-1-yl)acetic acid]"
9,2 nM,"Cc1c(-c2ccc(=O)n(Cc3cc(F)cc(F)c3)c2)c2cc(Cl)ccc2n1CC(=O)O [Example 294, 2-(5-Chloro-3-(1-(3,5-difluorobenzyl)-6-oxo-1,6-dihydropyridin-3-yl)-2-methyl-1H-indol-1-yl)acetic acid]"
10,11 nM,"Cc1c(-c2ccc(=O)n(Cc3cccc(F)c3)c2)c2cc(Cl)ccc2n1CC(=O)O [Example 295, 2-(5-chloro-3-(1-(3-fluorobenzyl)-6-oxo-1,6-dihydropyridin-3-yl)-2-methyl-1H-indol-1-yl)acetic acid]"
11,397 nM,"Cc1c(-c2ccc(=O)n(CCCC(F)(F)F)c2)c2ccccc2n1CC(=O)O [Example 296, 2-(2-methyl-3-(6-oxo-1-(4,4,4-trifluorobutyl)-1,6-dihydropyridin-3-yl)-1H-indol-1-yl)acetic acid]"
12,38 nM,"Cc1c(-c2ccc(=O)n(CCCC(F)(F)F)c2)c2cc(F)ccc2n1CC(=O)O [Example 297, 2-(5-fluoro-2-methyl-3-(6-oxo-1-(4,4,4-trifluorobutyl)-1,6-dihydropyridin-3-yl)-1H-indol-1-yl)acetic acid]"

# Second part, the molecule before the results:
row,Compound,IC50
1,"Cc1c(-c2ccc(=O)n(Cc3ccccc3)n2)c2cc(F)ccc2n1Cc1ccccc1 [Example 262c, 6-(1-benzyl-5-fluoro-2-methyl-1H-indol-3-yl)-2-benzylpyridazin-3(2H)-one]",> 10000 nM
2,"Cc1c(-c2ccc(=O)n(Cc3ccccc3)c2)c2ccccc2n1CC(=O)O [Example 263, 2-(3-(1-benzyl-6-oxo-1,6-dihydropyridin-3-yl)-2-methyl-1H-indol-1-yl)acetic acid]",42 nM
3,"Cc1c(-c2ccc(=O)n(Cc3ccccc3)c2)c2cc(Cl)ccc2n1CC(=O)O [Example 264, 2-(3-(1-benzyl-6-oxo-1,6-dihydropyridin-3-yl)-5-chloro-2-methyl-1H-indol-1-yl)acetic acid]",10 nM
4,"Cc1c(-c2ccc(=O)n(Cc3ccccc3)c2)c2cc(F)ccc2n1CC(=O)O [Example 265, 2-(3-(1-benzyl-6-oxo-1,6-dihydropyridin-3-yl)-5-fluoro-2-methyl-1H-indol-1-yl)acetic acid]",5 nM
5,"Cc1c(-c2ccc(=O)n(Cc3ccccc3F)c2)c2cc(F)ccc2n1CC(=O)O [Example 266, 2-(5-fluoro-3-(1-(2-fluorobenzyl)-6-oxo-1,6-dihydropyridin-3-yl)-2-methyl-1H-indol-1-yl)acetic acid]",9 nM
6,"Cc1c(-c2ccc(=O)n(Cc3ccc(F)cc3)c2)c2cc(F)ccc2n1CC(=O)O [Example 267, 2-(5-fluoro-3-(1-(4-fluorobenzyl)-6-oxo-1,6-dihydropyridin-3-yl)-2-methyl-1H-indol-1-yl)acetic acid]",6 nM
7,"Cc1c(-c2ccc(=O)n(Cc3c(F)cccc3F)c2)c2cc(F)ccc2n1CC(=O)O [Example 268, 2-(3-(1-(2,6-difluorobenzyl)-6-oxo-1,6-dihydropyridin-3-yl)-5-fluoro-2-methyl-1H-indol-1-yl)acetic acid]",7 nM
8,"Cc1c(-c2ccc(=O)n(Cc3cccc(F)c3F)c2)c2cc(F)ccc2n1CC(=O)O [Example 269, 2-(3-(1-(2,3-difluorobenzyl)-6-oxo-1,6-dihydropyridin-3-yl)-5-fluoro-2-methyl-1H-indol-1-yl)acetic acid]",1 nM
9,"Cc1c(-c2nn(Cc3nnc[nH]3)c(=O)c3ccccc23)c2cc(F)ccc2n1CC(=O)O [Example 270, 2-(3-(3-((4H-1,2,4-triazol-3-yl)methyl)-4-oxo-3,4-dihydrophthalazin-1-yl)-5-fluoro-2-methyl-1H-indol-1-yl)acetic acid]",> 5500 nM
10,"Cc1c(-c2ccc(=O)n(Cc3cc(F)c(F)cc3F)c2)c2cc(F)ccc2n1CC(=O)O [Example 271, 2-(5-Fluoro-2-methyl-3-(6-oxo-1-(2,4,5-trifluorobenzyl)-1,6-dihydropyridin-3-yl)-1H-indol-1-yl)acetic acid]",12 nM
11,"Cc1c(-c2cn(CCC(C)(C)O)c(=O)c3ccccc23)c2cc(F)ccc2n1CC(=O)O [Example 272, 2-(5-fluoro-3-(2-(3-hydroxy-3-methylbutyl)-1-oxo-1,2-dihydroisoquinolin-4-yl)-2-methyl-1H-indol-1-yl)acetic acid]",23 nM
12,"Cc1c(-c2ccc(=O)n(Cc3ccc(F)cc3F)c2)c2cc(F)ccc2n1CC(=O)O [Example 273, 2-(3-(1-(2,4-difluorobenzyl)-6-oxo-1,6-dihydropyridin-3-yl)-5-fluoro-2-methyl-1H-indol-1-yl)acetic acid]",28 nM
13,"Cc1c(-c2ccc(=O)n(Cc3ccc(F)cc3F)c2)c2cc(Cl)ccc2n1CC(=O)O [Example 274, 2-(5-chloro-3-(1-(2,4-difluorobenzyl)-6-oxo-1,6-dihydropyridin-3-yl)-2-methyl-1H-indol-1-yl)acetic acid]",3 nM
14,"Cc1c(-c2ccc(=O)n(Cc3ccc(F)cc3F)c2)c2ccccc2n1CC(=O)O [Example 275, 2-(3-(1-(2,4-difluorobenzyl)-6-oxo-1,6-dihydropyridin-3-yl)-2-methyl-1H-indol-1-yl)acetic acid]",30 nM
15,"Cc1c(-c2ccc(=O)n(C(C)C)c2)c2ccccc2n1CC(=O)O [Example 276, 2-(3-(1-isopropyl-6-oxo-1,6-dihydropyridin-3-yl)-2-methyl-1H-indol-1-yl)-acetic acid]",577 nM
16,Cc1c(-c2ccc(OC(C)C)nc2)c2cc(F)ccc2n1CC(=O)O [Example 277],71 nM
17,"Cc1c(-c2ccc(=O)n(C(C)C)c2)c2cc(Cl)ccc2n1CC(=O)O [Example 278, 2-(5-chloro-3-(1-isopropyl-6-oxo-1,6-dihydropyridin-3-yl)-2-methyl-1H-indol-1-yl)acetic acid]",198 nM
18,"Cc1c(-c2ccc(=O)n(CC(F)(F)F)c2)c2ccccc2n1CC(=O)O [Example 279, 2-(2-methyl-3-(6-oxo-1-(2,2,2-trifluoroethyl)-1,6-dihydropyridin-3-yl)-1H-indol-1-yl)acetic acid]",715 nM
19,"Cc1c(-c2ccc(=O)n(CC(F)(F)F)c2)c2cc(F)ccc2n1CC(=O)O [Example 280, 2-(5-Fluoro-2-methyl-3-(6-oxo-1-(2,2,2-trifluoroethyl)-1,6-dihydropyridin-3-yl)-1H-indol-1-yl)acetic acid]",117 nM
20,"Cc1c(-c2ccc(=O)n(CC(F)(F)F)c2)c2cc(Cl)ccc2n1CC(=O)O [Example 281, 2-(5-chloro-2-methyl-3-(6-oxo-1-(2,2,2-trifluoroethyl)-1,6-dihydropyridin-3-yl)-1H-indol-1-yl)acetic acid]",240 nM
21,"Cc1c(-c2ccc(=O)n(Cc3ccccc3F)c2)c2ccccc2n1CC(=O)O [Example 282, 2-(3-(1-(2-fluorobenzyl)-6-oxo-1,6-dihydropyridin-3-yl)-2-methyl-1H-indol-1-yl)acetic acid]",11 nM
22,"Cc1c(-c2ccc(=O)n(Cc3ccc(F)cc3)c2)c2ccccc2n1CC(=O)O [Example 283, 2-(3-(1-(4-fluorobenzyl)-6-oxo-1,6-dihydropyridin-3-yl)-2-methyl-1H-indol-1-yl)acetic acid]",16 nM
23,"Cc1c(-c2ccc(=O)n(Cc3cccc(F)c3F)c2)c2ccccc2n1CC(=O)O [Example 284, 2-(3-(1-(2,3-difluorobenzyl)-6-oxo-1,6-dihydropyridin-3-yl)-2-methyl-1H-indol-1-yl)acetic acid]",15 nM
